The values below come from patent US11642336B2, “5-HT2A agonists for use in treatment of depression” (priority 2019, dated 2023).

In assay [1] the target is 5-HT2C (Homo sapiens (Human), UniProt P28335). The assay can be described thus: Ca2+/Fluo-4 assay, stable h5-HT2C-HEK293 cell line.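 On all read-outs here: Agonist-induced intracellular Ca2+ rise read by Fluo-4 fluorescence in HEK293 cells stably expressing the human 5-HT2C receptor, each compound run in duplicate on three or more occasions.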 To be noted: for EC50: agonist potency, n = 3-4; for 5-HT2C Rmax ± S.E.M: % of the Rmax of 5-HT. The format is cell-based.
Experimental: The functional properties of the compounds were characterised at stable HEK293 cell lines stably expressing the human 5-HT2A receptor or human 5-HT2C receptor in the Ca^2+/Fluo-4 assay essentially as previously described.^10 Briefly, the cells were split into poly-D-lysine-coated black 96-well plates with clear bottoms (6×10^4 cells/well). The following day the culture medium was aspirated and the cells were incubated in 50 μl assay buffer [Hanks Buffered Saline Solution containing 20 mM HEPES, 1 mM CaCl2, 1 mM MgCl2, 2.5 mM probenecid, pH 7.4] supplemented with 6 mM Fluo-4/AM at 37° C. for 1 hour. Next, the buffer was aspirated, the cells were washed once with 100 μl assay buffer, and then 100 μl assay buffer was added to the cells (in the antagonist experiments the compound was added at this point). […] The compounds were characterized in duplicate at least three times at each cell line.
Assay [2] deals with human 5-HT2A (Homo sapiens (Human), UniProt P28223). The assay can be described thus: cell-based. Type of assay: cell-based. To be noted: for EC50: agonist potency, n = 3-4; for 5-HT2A Rmax ± S.E.M: % of the Rmax of 5-HT; for Selectivity EC50 5-HT2C/EC50 5-HT2A: Ca2+/Fluo-4 assay, bounds are conservative estimates.
[3] abbreviates: read-out: 5-HT2A [pEC50 ± S.E.M.] (converted).

Structures are written as SMILES. Where a name gives a salt, the structure may show the parent alone. Read-outs that look alike come from different tables or passages of the source. Marks after values point to notes of the source that are not given here.

5-HT2C, sequence (P28335 whole entry, looked up): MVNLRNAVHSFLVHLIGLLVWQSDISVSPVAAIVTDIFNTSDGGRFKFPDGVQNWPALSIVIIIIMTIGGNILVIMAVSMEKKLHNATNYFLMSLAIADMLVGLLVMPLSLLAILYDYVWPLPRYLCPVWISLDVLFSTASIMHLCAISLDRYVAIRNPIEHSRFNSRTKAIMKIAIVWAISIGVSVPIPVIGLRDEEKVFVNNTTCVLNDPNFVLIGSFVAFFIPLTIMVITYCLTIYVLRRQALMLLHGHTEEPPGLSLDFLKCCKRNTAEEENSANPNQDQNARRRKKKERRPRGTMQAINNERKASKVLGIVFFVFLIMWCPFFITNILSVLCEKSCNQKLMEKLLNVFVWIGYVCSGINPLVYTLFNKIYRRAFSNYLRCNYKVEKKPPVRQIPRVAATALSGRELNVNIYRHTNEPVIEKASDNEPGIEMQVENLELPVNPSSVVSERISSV

`CCCCc1cc(OC)c([C@H]2CCCNC2)cc1OC` [Compound 56, (R)-3-(4-butyl-2,5-dimethoxyphenyl)piperidine hydrochloride]: the EC50 in assay [1] (read-out: 5-HT2C EC50) is 1600 nM; in assay [2] (read-out: 5-HT2A EC50), 340 nM; in assay [2] (setting [3]) it was 347 nM.
As for `COc1cc([C@H]2CCCNC2)c(OC2CC2)cc1C(F)(F)F` [Compound 54, (R)-3-(2-cyclopropoxy-5-methoxy-4-(trifluoromethyl)phenyl)piperidine hydrochloride], in assay [1], the “5-HT2C Rmax ± S.E.M” value is reported as ~46-63^c %. The EC50 in assay [1] (read-out: 5-HT2C EC50) is 3000 to 10000 nM; in assay [2] (read-out: 5-HT2A EC50) it was 1800 nM; in assay [2] (setting [3]) it was 1780 nM. Moreover, in assay [2], the “5-HT2A Rmax ± S.E.M” value was determined as 76 ± 4%.
Consider `COc1cc([C@H]2CCNC2)c(OC)cc1Br` [Compound 3, (R)-3-(4-bromo-2,5-dimethoxyphenyl)pyrrolidine], for which, in assay [1], the “5-HT2C Rmax ± S.E.M” value is on record as 73 ± 3%. The EC50 is 25.7 nM in assay [1] (read-out: 5-HT2C [pEC50 ± S.E.M.] (converted)), 5.3 nM in assay [2] (read-out: 5-HT2A EC50) and 7.76 nM in assay [2] (setting [3]). In assay [2], the “5-HT2A Rmax ± S.E.M” value was determined as 57 ± 3%. In addition, in assay [2], the “Selectivity EC50 5-HT2C/EC50 5-HT2A” value is 4.9.
As for `COc1cc(CCNCc2ccccc2O)c(OC)cc1C#N` [drawing 23, reference compound], the EC50 in assay [1] (5-HT2C EC50 (nM)) came out at 47 nM. Moreover, the “5-HT2C Rmax ± S.E.M” value in assay [1] was 96 ± 7%.
Turning to `COc1cc([C@H]2CCCNC2)c(OC)cc1SC(C)C` [Compound 25, (R)-3-(4-(isopropylthio)-2,5-dimethoxyphenyl)piperidine], the EC50 in assay [2] (read-out: 5-HT2A EC50) stood at 290 nM.
Regarding `COc1cc(C(F)(F)F)c(OC)cc1[C@H]1CCCNC1` [Compound 7, (R)-3-(2,5-Dimethoxy-4-(trifluoromethyl)phenyl)piperidine hydrochloride], in assay [1] (read-out: 5-HT2C EC50), the EC50 was found to be 860 nM.
As for `CCOc1cc(C(F)(F)F)c(OCC)cc1[C@H]1CCCNC1.Cl` [Compound 21, (R)-3-(2,5-diethoxy-4-(trifluoromethyl)phenyl)piperidine hydrochloride], in assay [2], the “5-HT2A Rmax ± S.E.M” value is listed as 69 ± 4% and the “Selectivity EC50 5-HT2C/EC50 5-HT2A” value is reported as >10^e. Moreover, the EC50 in assay [2] (read-out: 5-HT2A EC50) amounted to 3000 nM.
Turning to `CCOc1cc([C@H]2CCCNC2)c(OC)cc1CC.Cl` [Compound 33, (R)-3-(5-ethoxy-4-ethyl-2-methoxyphenyl)piperidine hydrochloride], in assay [2], the “5-HT2A Rmax ± S.E.M” value turned out to be 89 ± 4% and the “Selectivity EC50 5-HT2C/EC50 5-HT2A” value is on record as >10^e. Also, the EC50 in assay [2] (read-out: 5-HT2A EC50) came to 1100 nM. Further, the EC50 in assay [2] (setting [3]) was 1120 nM.
For `COc1cc([C@H]2CCCNC2)ccc1C(F)(F)F.Cl` [Compound 48, (R)-3-(3-methoxy-4-(trifluoromethyl)phenyl)piperidine hydrochloride], in assay [2], the “5-HT2A Rmax ± S.E.M” value was found to be 68 ± 7% and the “Selectivity EC50 5-HT2C/EC50 5-HT2A” value was >50^e. In addition, in assay [2] (read-out: 5-HT2A EC50), the EC50 turned out to be 1800 nM.
In the case of `CCOc1cc(CC)c(OC)cc1[C@H]1CCCNC1` [Compound 42, (R)-3-(2-ethoxy-4-ethyl-5-methoxyphenyl)piperidine], in assay [2], the “5-HT2A Rmax ± S.E.M” value stood at 80 ± 9% and the “Selectivity EC50 5-HT2C/EC50 5-HT2A” value is on record as >10^e. In assay [2] (read-out: 5-HT2A EC50), the EC50 was 1500 nM.
Consider `COc1cc([C@H]2CCCNC2)c(OC)cc1I` [Compound 13, (R)-3-(4-Iodo-2,5-dimethoxyphenyl)piperidine], for which the EC50 in assay [2] (read-out: 5-HT2A EC50) was 260 nM; in assay [2] (setting [3]) it was 263 nM.
For the compound `CCOc1cc([C@H]2CCCNC2)c(OC)cc1C(F)(F)F.Cl` [Compound 19, (R)-3-(5-ethoxy-2-methoxy-4-(trifluoromethyl)phenyl)piperidine hydrochloride], the “5-HT2A Rmax ± S.E.M” value in assay [2] was found to be 86 ± 6%. In addition, the EC50 was 320 nM in assay [2] (read-out: 5-HT2A EC50) and 316 nM in assay [2] (setting [3]).
Regarding `CCOc1cc([C@H]2CCCNC2)c(OCC)cc1CC.Cl` [Compound 40, (R)-3-(2,5-diethoxy-4-ethylphenyl)piperidine hydrochloride], in assay [2], the “5-HT2A Rmax ± S.E.M” value is ~61-74^c % and the “Selectivity EC50 5-HT2C/EC50 5-HT2A” value is on record as >3^e. The EC50 in assay [2] (read-out: 5-HT2A EC50) fell in the range of 7000 to 10000 nM.
